Assay results from the NIST ThermoML archive (doi:10.1016/j.tca.2009.06.015).

Key:
[1] = xn = mol fraction of the nth substance listed; conditions: 101 kPa, Liquid; for viscosity: Capillary tube (Ostwald / Ubbelohde) method; for mass density: Vibrating tube method
[2] = refractive index (Na D-line) (dimensionless); xn = mol fraction of the nth substance listed; conditions: 101 kPa, Liquid, Standard Abbe refractometry

CC#N [acetonitrile] + CC(C)O
Conditions | mass density, [1] [kg/m3] | refractive index, [2] | viscosity, [1] [mPa·s]
293.15 K, x1 = 0.0496 | 784.97 | 1.3757 | 1.972
293.15 K, x1 = 0.0906 | 784.72 | 1.3751 | 1.688
293.15 K, x1 = 0.1529 | 784.31 | 1.3737 | 1.368
293.15 K, x1 = 0.2022 | 783.9 | 1.3726 | 1.176
293.15 K, x1 = 0.2783 | 783.36 | 1.3705 | 0.9608
293.15 K, x1 = 0.3678 | 782.71 | 1.3677 | 0.7912
293.15 K, x1 = 0.4768 | 782.02 | 1.364 | 0.6502
293.15 K, x1 = 0.6132 | 781.53 | 1.359 | 0.51
293.15 K, x1 = 0.7714 | 781.13 | 1.3528 | 0.4156
293.15 K, x1 = 0.9207 | 781.26 | 1.3469 | 0.3716
293.15 K, x1 = 1 | 782.04 | 1.3436 | 0.3542
298.15 K, x1 = 0.0496 | 780.76 | 1.3733 | 1.691
298.15 K, x1 = 0.0906 | 780.3 | 1.3724 | 1.461
298.15 K, x1 = 0.1529 | 779.7 | 1.3713 | 1.207
298.15 K, x1 = 0.2022 | 779.7 | 1.3702 | 1.044
298.15 K, x1 = 0.2783 | 779.2 | 1.3687 | 0.8677
298.15 K, x1 = 0.3678 | 777.65 | 1.3667 | 0.7248
298.15 K, x1 = 0.4768 | 778.79 | 1.3635 | 0.6062
298.15 K, x1 = 0.6132 | 776.2 | 1.3591 | 0.4735
298.15 K, x1 = 0.7714 | 775.79 | 1.3528 | 0.384
298.15 K, x1 = 0.9207 | 775.95 | 1.3452 | 0.3499
298.15 K, x1 = 1 | 776.64 | 1.3411 | 0.3369
303.15 K, x1 = 0.0496 | 776.32 | 1.3715 | 1.474
303.15 K, x1 = 0.0906 | 775.84 | 1.3707 | 1.288
303.15 K, x1 = 0.1529 | 775.13 | 1.3694 | 1.069
303.15 K, x1 = 0.2022 | 774.54 | 1.3684 | 0.9367
303.15 K, x1 = 0.2783 | 773.97 | 1.3666 | 0.7975
303.15 K, x1 = 0.3678 | 772.88 | 1.3641 | 0.6615
303.15 K, x1 = 0.4768 | 771.84 | 1.3608 | 0.5492
303.15 K, x1 = 0.6132 | 771.13 | 1.3561 | 0.4429
303.15 K, x1 = 0.7714 | 770.52 | 1.35 | 0.3617
303.15 K, x1 = 0.9207 | 770.59 | 1.3433 | 0.3311
303.15 K, x1 = 1 | 771.21 | 1.339 | 0.3254
308.15 K, x1 = 0.0496 | 771.86 | 1.3694 | 1.296
308.15 K, x1 = 0.0906 | 771.31 | 1.3687 | 1.15
308.15 K, x1 = 0.1529 | 770.57 | 1.3679 | 0.9576
308.15 K, x1 = 0.2022 | 769.92 | 1.367 | 0.846
308.15 K, x1 = 0.2783 | 768.98 | 1.3657 | 0.7168
308.15 K, x1 = 0.3678 | 767.8 | 1.3637 | 0.6057
308.15 K, x1 = 0.4768 | 766.44 | 1.3605 | 0.5051
308.15 K, x1 = 0.6132 | 765.75 | 1.3557 | 0.4111
308.15 K, x1 = 0.7714 | 765.26 | 1.3491 | 0.3442
308.15 K, x1 = 0.9207 | 765.18 | 1.3417 | 0.3202
308.15 K, x1 = 1 | 765.75 | 1.3371 | 0.3082
